One series concerns soleus muscle. Briefly: bupivacaine myonecrosis model, centrally nucleated muscle fibers. In kind it is in vivo, Sprague-Dawley rats. As to conditions: for centrally nucleated fibers in regenerating muscle: 14 days after the bupivacaine injection, in words; for Centrally nucleated fibers (%): day 7 after the bupivacaine injection, soleus muscle, sustained-release formulation (Bolus: bolus 29-mer). On the procedure: To ascertain the number of centrally nucleated muscle fibers, sections were stained with H&E and then photographed as described above. At least 100 stained fibers were randomly chosen from each photo. Muscle fibers were judged centrally nucleated if one or more nuclei were not located at the periphery of the fiber. The data were expressed as a % of the total number of muscle fibers counted. Results were evaluated from 6 sections per muscle section, and 10 mice at each group.
To investigate the effects of the present PEDF peptides on muscle regeneration, a rat myonecrosis model of a single injection of bupivacaine into the soleus muscle was employed. Adult 10-week-old male Sprague-Dawley rats (initial body weight=312±11 g) were anesthetized by an intraperitoneal injection of a xylazine (10 mg/kg). Then, the soleus muscle was injured by unilaterally injecting 0.5 ml bupivacaine (AstraZeneca) with a disposable syringe with a 26-gauge needle. Briefly, the needle was inserted into the distal portion of the soleus muscle and then receded longitudinally to the proximal portion accompanying evenly bupivacaine solution injection. The solution was then injected throughout the entire length of the muscle as the needle was slowly withdrawn.
After bupivacaine injection, rats were divided equally (n=10/group) into four experimental groups and treated as follows. In the blank control group, the mice were treated with 50 μl of blank alginate gel. In the treatments groups, the mice received 50 μl of the sustained-release formulation (29-mer or 20-mer). The mice in the bolus control group received the bolus formulation (29-mer). Treatments were applied by way of a single intramuscular injection to the soleus muscle immediately after the bupivacaine perfusion.
In the process of muscle regeneration, newly generated muscle fibers typically contain central located nuclei. […] Statistical analysis regarding the percentage of centrally nucleated fibers was performed at day 7 after the bupivacaine injection, and the results were summarized in Table 6.

Series [1] in a line: in vitro release of PEDF peptides from alginate gel in PBS. In kind it is physicochemical. The settings on record: PBS pH 7.4, 37° C.; for peptide remained in the alginate gel matrix: after 24 hours, FITC-conjugated peptide in alginate hydrogel. On the procedure:
Each PEDF-derived short synthetic peptide (the 29-mer, 25-mer, 24-mer, 20-mer, 18-mer, MO 29-mer, or MO 20-mer; hereinbelow, PEDF peptide) was reconstituted in DMSO as stock (5 mM). Then, ultrapure alginate was mixed with the stock to obtain a 2% wt/vol alginate solution with PEDF peptide at a final concentration of 10 μM. The alginate solution was then filtered by membrane filter (pore size, 0.22 μm) and mixed with filtered calcium sulfate (0.21 g CaSO4/mL of dH2O) at a ratio of 25:1 (40 μL of CaSO4 per 1 mL of the filtered alginate solution). The mixture was let standing at RT for about 1 hour to allow for the cross-linking of the alginate. The resultant sustained-release formulation was then used in the treatment of muscle or tendon damage and ischemia.
To determine the release kinetics of 29-mer and 20mer, 100 μg of FITC-conjugated PEDF peptide was mixed with 100 μL alginate solution, and then hydrogels were prepared as set forth in the “Materials and Methods” section. Thereafter, 100 mg hydrogel was incubated in 1.5 ml of PBS (pH 7.4) in microcentrifuge tube and placed in an orbital shaking incubator over a 6-day period at 37° C. The tube was centrifuged at each predetermined time point and then 200 μL of supernatant was removed and stored at −80° C. for further analysis, and 200 μL of fresh PBS was added to the tube to replace the supernatant withdrawn. The concentration of FITC-conjugated PEDF peptide present in the collected supernatants was determined using a fluorimeter in 96-well format. A known non-encapsulated FITC-peptide was used to generate a standard curve. Triplicate data were used for analysis.

The subject of series [2] is bone marrow-derived mesenchymal stem cells (BM-MSCs). The series can be described thus: BM-MSC differentiation into tenocytes, tenomodulin (TNMD) gene expression by RT-PCR. In kind it is cell-based, Sprague-Dawley rats. As to conditions: 50 nM peptide, 1% FBS-DMEM, 24 or 48 hours, in words. The method, then: Primary rat BM-MSCs were isolated from femur of male Sprague-Dawley rats (300-450 g). Femora were aseptically removed and dissected free of adhering tissues, and then the marrow cavities were flushed by injection of DMEM medium. Collected bone marrow cells were incubated in a 100×15-mm Petri dish in DMEM medium supplemented with 10% FBS, 100 U/ml penicillin, and 100 μg/ml streptomycin for 2 weeks in 5% CO2 at 37° C. The medium was replaced every 2 to 3 days. For passage, near-confluent cells were detached by 0.25% trypsin and then 2×10^5 subcultured cells were seeded in a well of 6-well plate and further cultured in the 10% FBS-DMEM. Before treatment, cells were starved for 12 hours in DMEM supplemented with 1% FBS followed by treatment with 50 nM PEDF-derived peptide (29-mer or 20-mer) in fresh 1% FBS-DMEM for either 24 or 48 hours.
The total RNA was extracted from cells using TRIzol and treated with RNase-free DNase I (Qiagen, Santa Clarita, Calif.) to remove genomic DNA and then purified with an RNA purification kit (Dynabeads). […]
The PCR products were electrophoresed in a 2% agarose gel containing ethidium bromide and visualized by UV illumination. The intensities of the PCR products were quantified densitometrically using a FUJI LAS-3000 system and Multi Gauge Ver. […]

“SLGAEQRTESIIHRALYYDL [20-mer, synthetic peptide corresponding to residues 93-112 of human PEDF]”: in the series with soleus muscle, the “centrally nucleated fibers in regenerating muscle” value is “much less centrally nucleated fibers” and the “Centrally nucleated fibers (%)” value came to 63.3 ± 7.4%. The “peptide remained in the alginate gel matrix” value in series [1] was approximately 35%. The “peptide released from alginate gel” value in series [1] (in the first 3 days) was “about 90%”. The “tenocyte differentiation of BM-MSCs (TNMD gene expression)” value in series [2] is reported as “effective inducer of tenocyte-like cell differentiation”.

Take “SLGAEQRTESIIHRALYYDLISSPDIHGT [29-mer, synthetic peptide corresponding to residues 93-121 of human PEDF]”: in the series with soleus muscle, the “centrally nucleated fibers in regenerating muscle” value is reported as “much less centrally nucleated fibers” and the “Centrally nucleated fibers (%)” value is reported as 75.2 ± 7.0%. For the same sequence, in series [1], the “peptide remained in the alginate gel matrix” value is “approximately 48%”. In series [1] (within the first 4 days), the “peptide released from alginate gel” value was determined as 90%. Further, the “tenocyte differentiation of BM-MSCs (TNMD gene expression)” value in series [2] is “effective inducer of tenocyte-like cell differentiation”.

The values are drawn from patent US9884012B2, “Use of PEDF-derived polypeptides for promoting muscle or tendon regeneration or arteriogenesis” (MacKay Memorial Hospital, priority 2012, dated 2018).
